The numbers were not newly measured in patent publication US20220280449A1, “CURCUMINOID COMPOSITIONS” (priority 2018, published 2022), which cites them from elsewhere.

This data set concerns Caco-2 cells.

`COc1cc(/C=C/C(=O)CC(=O)/C=C/c2ccc(O)c(OC)c2)ccc1O` [curcumin]: where the note is “from correlation of Caco-2 Papp with human absorption”, the “predicted absorption in humans” value is 0-20%. Further, for the setting “in vitro human intestinal cell model (Caco-2)”, the “apparent permeability coefficient (Papp value)” value is 0.1 ×10⁻⁶ cm/s.
